One data set has as its target hERG channels (Homo sapiens, UniProt Q12809). The data set can be described thus: hERG channel activity. The note with it: in vitro.
A further data set deals with dogs. Briefly: Two week oral dosing in dogs, kidney pathology. It counts as in vivo, dog. The note with it: 15 mg/kg/d po for two weeks.
Data set [1] deals with nonreceptor type protein tyrosine phosphatase 1 (PTPN1/ PTP1B). Details: method as in PMID 35636503. The note with it: cited from earlier work.
Data set [2] is described as follows: Plasma pentilludin levels after acute 20 mg/kg iv or po administration. It counts as in vivo. The note with it: rat. On the procedure: Proteins in 50 μL plasma collected with K2EDTA as anti-coagulant were precipitated by adding 5 μL of acetonitrile with 0.5% v/v ascorbate, 200 μL of acetonitrile containing 20 ng/ml tolbutamide internal standard with 0.5% ascorbate was added, the mixture was vortexed for 1 min, centrifuged @ 4000 rpm for 15 mins and peaks in 8 μL of the supernatant were identified using an AB Sciex Triple Quad 5500 LC-MS/MS (electrospray, negative ions, Analyst 1.6.3 software) and a Waters Acquity Ultra Performance LC System with 50 × 2.1 mm Acuity UPLC Beh C18 1.7 μm column eluted for 2.5 min @ 22°C @ 0.5 ml/min with Mobile Phase A (5mM NH4OAc in water with 0.05% formic acid) and mobile phase B (acetonitrile with 0.1% formic acid) with changes in % A as follows: 60, 10, 5, and 60. Standards were quantitated at concentrations ranging from 1– 2000 ng/mL.

Data set [3] can be described thus: Repeated two week daily oral administration toxicity (observational battery, weight, chemistry, hematology, histopathology). The note with it: rat.
For data set [4], the target named is receptor type protein tyrosine phosphatase D (PTPRD). On the set-up: method as in PMID 34863978. The note with it: likely irreversible; read-out: potency in inhibiting PTPRD's phosphatase; cited from earlier work.
The subject of a further data set is Ames test. Briefly: Ames test. It counts as cell-based. The note with it: in vitro.
Data set [5] deals with rats trained to self-administer remifentanil iv. Briefly: Remifentanil self-administration. It counts as in vivo. The note with it: rat. On the procedure: (§1) Young adult Sprague-Dawley rats (Charles River Laboratories, Raleigh, NC, USA) were singly housed on a reverse 12:12 day night cycle and tested during their active (dark) phase in studies approved by the Duke Institutional Animal Care and Use Committee. Rats had catheters surgically implanted in their jugular veins to provide access for self-administration by IV infusion. Briefly, rats were anesthetized with i.p. injections of ketamine (Fort Dodge Animal Health, Fort Dodge, IA, USA; […]) with the addition of Dexdomitor (Pfizer, New York, NY, USA; 0.15 mg/kg) which is a sedative and analgesic agent. Before surgery, ketoprofen (5 mg/kg, s.c.) was administered to reduce post-operative pain and inflammation. A plastic SoloPort was attached intraoperatively to a polyurethane catheter and inserted into a subcutaneous interscapular pocket and sutured to underlying fascia.
(§2) The day following surgery, the rats began self-administration sessions with amphetamine (0.1 mg/kg/infusion, iv) or remifentanil (0.3 μg/kg/infusion, iv) as reinforcers. […] Each infusion was followed by a 20-sec timeout in which the house light goes on and cue light goes out. Responses were recorded but not reinforced during this interval. […] There were five sessions of training for self-administration before the onset of pentilludin drug treatment sessions. All of the animals had the same number of training sessions to provide all with equal testing history. Each infusion session lasted for one hour. Animals were tested not more than once/day between 9 AM and 4 PM.
(§3) At the end of each study catheter patency was confirmed by assessing sedation following methohexital (brevital) administration through the catheter. […] Self-administration results, differences from baseline levels, were assessed for statistical for significance with analysis of variance. To control for baseline differences in self-administration, the self-administration with pentilludin or vehicle treatment was analyzed as a difference from each animal’s self-administration on the last two sessions of baseline training. […]

Data set [6] has as its system receptor type protein tyrosine phosphatase F (PTPRF). Details: method as in PMID 35636503. The note with it: cited from earlier work.
Data set [7] in a line: Metabolism in human liver microsomes. It counts as in vitro ADME.
Data set [8] has as its system receptor type protein tyrosine phosphatase S (PTPRS). On the set-up: method as in PMID 35636503. The note with it: cited from earlier work.
Another data set is described as follows: Metabolism in rat plasma. It counts as in vitro ADME.
Data set [9] deals with targets of the NIDA-EUROFINS assays (virtually all targets of currently marketed drugs). Details: method as in PMID 34863978. The note with it: cited from earlier work.
Data set [10] is described as follows: Metabolism in human plasma. It counts as in vitro ADME.
A short description of data set [11]: Solubility in dosing vehicles. It counts as physicochemical. The note with it: read-out: soluble at concentrations up to. The procedure:
Pentilludin powder was >97.5% pure following synthesis and when reanalyzed (Certificate of Analysis, GLP) 1 ½ and 2 ½ years after synthesis. Pentilludin was soluble in 6.82% Captisol in 60:40 PEG600/water (the vehicle used for initial toxicology experiments) and in PEG600 (the vehicle used for self-administration and Good Laboratory Practices testing) at concentrations up to 100 mg/ml with gentle heating.

For another data set, the system named is rats. Briefly: Lever pressing for self-administration of food pellets. It counts as in vivo. The note with it: rat, eight sessions of testing.
In data set [12] the test system is rats trained to self-administer amphetamine iv. Briefly: Amphetamine self-administration. It counts as in vivo. The note with it: rat. On the procedure:
as §1, §2, §3

Another data set relates to micronucleus test. The data set can be described thus: micronucleus test. It counts as cell-based. The note with it: in vitro.
Data set [13] can be described thus: Metabolism in rat liver microsomes. It counts as in vitro ADME.
For data set [14], the system named is mice. The note with it: cited from earlier work.
Another data set concerns recombinant paraoxonase. The data set can be described thus: Interaction with recombinant paraoxonase. It counts as in vitro ADME. The note with it: initial work.
In data set [15] the test system is receptor type protein tyrosine phosphatase J (PTPRJ). Details: method as in PMID 35636503. The note with it: cited from earlier work.
Data set [16] relates to mice. On the set-up: method as in PMID 30348770. The note with it: cited from earlier work.
In data set [17] the test system is mice. On the set-up: method as in PMID 30348770. The note with it: cited from earlier work. The source holds these as a separate data set.
Where [18] appears, read: 20 mg/kg sc prior to every other session, 20 mg/kg.

This is an account of results in publication doi:10.1101/2025.07.28.667221, “Pentilludin reduces rat amphetamine and remifentail self-administration with good pharmacologic and toxicologic profiles” (bioRxiv, 2025).

The structures appear in SMILES notation. “Also recorded” adds a separate entry of the source. Where two headings read alike, the source gives them in different places.

Sequence of hERG channels (Q12809 whole entry): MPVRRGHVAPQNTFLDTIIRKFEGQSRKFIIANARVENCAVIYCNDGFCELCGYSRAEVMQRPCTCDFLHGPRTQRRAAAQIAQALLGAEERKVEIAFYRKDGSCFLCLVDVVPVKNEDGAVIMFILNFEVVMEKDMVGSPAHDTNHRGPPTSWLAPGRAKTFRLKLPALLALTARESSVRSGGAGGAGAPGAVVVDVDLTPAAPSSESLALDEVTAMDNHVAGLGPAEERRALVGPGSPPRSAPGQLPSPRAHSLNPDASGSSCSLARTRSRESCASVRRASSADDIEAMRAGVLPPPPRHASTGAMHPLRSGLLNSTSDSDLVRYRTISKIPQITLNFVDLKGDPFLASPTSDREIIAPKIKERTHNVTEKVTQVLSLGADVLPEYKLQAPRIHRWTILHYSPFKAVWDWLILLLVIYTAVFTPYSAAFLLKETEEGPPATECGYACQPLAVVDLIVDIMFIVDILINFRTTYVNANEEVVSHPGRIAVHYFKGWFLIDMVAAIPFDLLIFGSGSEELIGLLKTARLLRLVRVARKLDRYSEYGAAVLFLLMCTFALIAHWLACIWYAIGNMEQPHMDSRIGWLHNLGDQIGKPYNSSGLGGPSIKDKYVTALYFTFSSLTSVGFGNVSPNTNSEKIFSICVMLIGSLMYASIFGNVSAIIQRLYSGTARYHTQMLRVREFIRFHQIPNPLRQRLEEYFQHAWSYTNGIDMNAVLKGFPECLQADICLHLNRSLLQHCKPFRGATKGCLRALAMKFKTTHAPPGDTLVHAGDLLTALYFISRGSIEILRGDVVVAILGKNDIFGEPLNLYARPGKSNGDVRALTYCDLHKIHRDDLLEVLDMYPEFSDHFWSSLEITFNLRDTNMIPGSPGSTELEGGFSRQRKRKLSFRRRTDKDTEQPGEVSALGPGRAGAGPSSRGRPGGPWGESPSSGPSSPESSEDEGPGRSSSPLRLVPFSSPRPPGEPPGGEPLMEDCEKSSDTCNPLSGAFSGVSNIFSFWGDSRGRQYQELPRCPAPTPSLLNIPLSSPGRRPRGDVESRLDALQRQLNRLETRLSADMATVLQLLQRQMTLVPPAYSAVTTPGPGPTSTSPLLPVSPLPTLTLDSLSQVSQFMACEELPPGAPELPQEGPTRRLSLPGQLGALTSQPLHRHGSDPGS

As for `COc1c(OCC2CCCC2)cc2c(c1C=O)CC(O)OC2=O` (stereo not drawn) [Pentilludin], the “activity at hERG channels” value on hERG channels is listed as “no in vitro activities”. In addition, the kidney pathology result with dogs is on record as “fail to display any kidney pathology”. Moreover, the “potency at PTPN1/ PTP1B” value in [1] is on record as “less potency”. Moreover, the bioavailability in data set [2] (plasma, po, 20 mg/kg, data from 0.5 to 4h, read-out: bioavailability for po pentilludin in PEG600) turned out to be 15%. The molecule also displayed a concentration at 0.08 h in data set [2] (plasma, IV 20.0 mg/kg, 0.08 h) of 62200 ng/mL. Besides, the concentration at 0.5 h worked out at 2920 ng/mL in data set [2] (plasma, IV 20.0 mg/kg, 0.50 h) and 449 ng/mL in data set [2] (plasma, PO 20.0 mg/kg in PEG600, 0.50 h). Besides, the concentration at 4 h in data set [2] (plasma, IV 20.0 mg/kg, 4.0 h) worked out at 4.98 ng/mL; in data set [2] (plasma, PO 20.0 mg/kg in PEG600, 4.0 h), 17.1 ng/mL. The molecule also showed a concentration at 2 h in data set [2] (plasma, PO 20.0 mg/kg in PEG600, 2.0 h) of 146 ng/mL. In addition, the “terminal half-life of plasma pentilludin” value in data set [2] (20 mg/kg) is “between one and two”. Besides, in data set [2] (acute 20 mg/kg), the “signs of gross toxicity” value is reported as “no signs of gross toxicity”. In data set [3] (150 mg/kg/d), the “serum chemistry abnormalities in measures relating to renal function” value was “no serum chemistry abnormalities”. Moreover, in data set [3] (150 mg/kg/d po two weeks, 150 mg/kg/day), the proteinuria result is “proteinuria in rats treated with 150 mg/kg/d that recovered within two weeks of the end of pentilludin administration; also recorded: modest and reversible proteinuria”. The “effects on the observational battery, weight, plasma chemistries or hematological assessments” value in data set [3] (50 or 75 mg/kg po daily in PEG600, two weeks) is reported as “no significant effects”. The kidney histopathology result in data set [3] (daily doses for two weeks, also found with vehicle) is recorded as “basophilic lesions in the kidneys of a number of the rats”. Besides, the “alterations in serum chemistries related to renal function” value in data set [3] (doses up to 100 mg/kg/d) is on record as “None of the rats treated with doses up to 100 mg/kg/d displayed alterations”. In addition, the “behavioral, hematologic or serum chemistry abnormalities” value in [3] (doses up to 100 mg/kg/day for two weeks) is recorded as “have not been found to display behavioral, hematologic or serum chemistry abnormalities”. In addition, the effects on histopathology entry in data set [3] (good laboratory practices toxicology study, 50 or 75 mg/kg/d po two weeks) is listed as “no pentilludin-associated effects detected”. Moreover, the “effect on plasma chemistry, hematology and behavioral observation batteries” value in data set [3] (good laboratory practices work) is given as “lack of effect”. The IC50 is 690 nM in data set [4] and ≥ 100000 nM in [9]. In addition, the “activity in Ames test” value in the data set on Ames test is reported as “no in vitro activities”. In data set [5] (setting [18]), the “effect on remifentanil self-administration” value is on record as “more modestly reduces; also recorded: significantly attenuated the increase”. Moreover, in data set [5] (20 mg/kg sc, 11th and 12th sessions), the “smaller increase in remifentanil self-administration relative to vehicle-treated controls” value amounted to 26.5%. Further, in data set [5] (remifentanil self-administration), the “responding on the control lever” value is “did not differ”. For the same molecule, the “potency at PTPRF” value in data set [6] is “some potency”. In addition, the metabolism result in data set [7] was “only modest metabolism”; in “Metabolism in rat plasma”, “robust metabolism”; in [10], “robust metabolism”; in data set [13] it was “only modest metabolism”. Besides, the “potency at PTPRS” value in data set [8] is “some potency”. For the same molecule, the “activity at targets for currently-licensed drugs” value in data set [9] (in vitro) was “no in vitro activities”. Also, the solubility was ≤ 100 mg/mL in [11] (6.82% Captisol in 60:40 PEG600/water (dosing vehicle), 6.82% Captisol in 60:40 PEG600/water, gentle heating) and ≤ 100 mg/mL in data set [11] (PEG600 (dosing vehicle), PEG600, gentle heating). Moreover, the “food pellets per one-hour session” value in the data set on rats amounted to 85.6 ± 6.3 food pellets. Further, the “reduction of amphetamine self-administration overall relative to controls” value in [12] (20 mg/kg sc prior to every other session, 12 sessions) is 6.2 infusions per session. The “effect on amphetamine self-administration” value in data set [12] (setting [18]) is on record as “substantially reduces; also recorded: robustly reduced”. Also, in [12] (20 mg/kg sc, last two of 12 sessions), the “decrease of amphetamine self-administration from last acquisition sessions” value was 23%. In addition, the “activity in micronucleus test” value in the data set with micronucleus test is “no in vitro activities”. Further, the “oral intake and weight” value in the data set with mice [14] (daily ≥ 150 mg/kg po) was “reduce oral intake and lose weight starting on about the 4th day”. The “toxicity on weeks-long repeated treatments” value in the data set on mice [14] (pentilludin doses up to 100 mg/kg/d po) was “little evidence for toxicity”. For the same molecule, the weight loss result in the data set with mice [14] (repeated doses of 100 mg/kg/day) is on record as “no weight loss”. Also, the “interaction with recombinant paraoxonase” value in the data set on recombinant paraoxonase is given as “interacts avidly”. Moreover, the “potency at PTPRJ” value in data set [15] is reported as “less potency”.
In the case of `CCCCOc1cc2c(c(C=O)c1OC)CC(O)OC2=O` (stereo not drawn) [7-BIA], the “stimulant reward, cocaine conditioned place preference” value in the data set with mice [16] was “reduces stimulant reward”. Further, the “stimulant reward, cocaine self-administration” value in the data set with mice [17] is recorded as “reduces stimulant reward”. Further, the “toxicity on weeks-long repeated treatments” value in the data set with mice [14] is recorded as “little evidence for toxicity”.
